Values after ≈ are worked out from the molar mass of the structure shown.
How the values were obtained:
Pseudomonas aeruginosa = assay: Minimum inhibition concentration against Pseudomonas aeruginosa U-31 strain; assay type: functional
Enterococcus faecalis = assay: Minimum inhibition concentration against Enterococcus faecalis LS-101 strain; assay type: functional
Streptococcus pneumoniae = assay: Minimum inhibition concentration against Streptococcus pneumoniae Type I strain; assay type: functional
Staphylococcus aureus [1] = assay: Minimum inhibition concentration against Staphylococcus aureus FDA209P strain; assay type: functional
Escherichia coli [2] = assay: Minimum inhibition concentration against Escherichia coli NIHJ JC-2 strain; assay type: functional
Escherichia coli [3] = assay: Effective dose against Escherichia coli KC14 strain in mouse; assay type: functional
Staphylococcus aureus [4] = assay: Minimum inhibitory concentration against Staphylococcus aureus Smith; assay type: functional
[5] = target: T1, GABA-A receptor; anion channel (Homo sapiens) (UniProt P14867+P47870+P18507+P28472+P48169+Q99928+Q9UN88+P34903+O00591+O14764+Q8N1C3+P18505+P78334+P47869+P31644+Q16445); assay: Percentage of GABA-induced chloride currents with 10e-4 M 4-biphenylacetic acid; assay type: functional; conditions: Bull Frog
Mus musculus [6] = assay: Percentage of mice with convulsion (400 mg/kg fenbufen); assay type: functional
Escherichia coli [7] = assay: Minimum inhibitory concentration against Escherichia coli KC14 strain; assay type: functional
[8] = target: GABA-A receptor; anion channel; assay: Inhibition of [3H]muscimol binding to GABA A receptor 4-biphenylacetic acid at 10 e-4 M; assay type: protein-complex assay; conditions: read-out: IC50
Mus musculus [9] = assay: Percentage of mice with convulsion with compound alone at 400 mg/kg; assay type: functional
[10] = target: GABA-A receptor; anion channel; assay: Inhibition of [3H]muscimol binding to GABA A receptor with compound alone at 10 e-4 M; assay type: protein-complex assay
[11] = The compound was evaluated for the solubility in water at 25 degrees Centigrade; assay type: ADME
[12] = target: T1, GABA-A receptor; anion channel (Homo sapiens); assay: Percentage of GABA-induced chloride currents with compound alone at 10 e-4 M; assay type: functional; conditions: Bull Frog
Staphylococcus aureus [13] = assay: Effective dose against Staphylococcus aureus smith strain in mouse; assay type: functional
[14] = target: T1, GABA-A receptor; anion channel (Homo sapiens); assay: Percentage of GABA-induced chloride currents with 10 e-5 M 4-biphenylacetic acid; assay type: functional; conditions: Bull Frog
Staphylococcus aureus [15] = assay: Minimum inhibition concentration against Staphylococcus aureus MRSA strain; assay type: functional
[16] = target: GABA-A receptor; anion channel; assay: Inhibition of [3H]muscimol binding to GABA A receptor with 10 e-4 M 4-biphenylacetic acid; assay type: protein-complex assay

Compound	MIC (Pseudomonas aeruginosa)	MIC (Enterococcus faecalis)	MIC (Streptococcus pneumoniae)	MIC (Staphylococcus aureus [1])	MIC (Escherichia coli [2])	ED50 (Escherichia coli [3])	MIC (Staphylococcus aureus [4])	Currents [5]	Convulsion (Mus musculus [6])	MIC (Escherichia coli [7])	IC50 [8]	Convulsion (Mus musculus [9])	IC50 [10]	solubility [11]	Currents [12]	ED50 (Staphylococcus aureus [13])	Currents [14]	MIC (Staphylococcus aureus [15])	IC50 [16]
NCC1CN(c2c(F)cc3c(=O)c(C(=O)O)cn(C4CC4)c3c2Cl)CCO1 (centres undefined)	1.56 µg/mL (≈ 3.94 µM)	0.05 µg/mL (≈ 0.126 µM)	0.05 µg/mL (≈ 0.126 µM)	0.012 µg/mL (≈ 0.0303 µM)	0.1 µg/mL (≈ 0.253 µM)	–	–	–	–	–	–	–	–	–	–	–	–	–	–
O=C(O)c1cn(C2CC2)c2c(F)c(N3CCOC(CN4CCCCC4)C3)c(F)cc2c1=O (centres undefined)	50 µg/mL (≈ 112 µM)	25 µg/mL (≈ 55.9 µM)	6.25 µg/mL (≈ 14 µM)	0.78 µg/mL (≈ 1.74 µM)	3.13 µg/mL (≈ 6.99 µM)	–	–	–	–	–	–	–	–	–	–	–	–	–	–
NCC1CN(c2c(F)cc3c(=O)c(C(=O)O)cn(C4CC4)c3c2F)CCO1 (centres undefined)	0.78 µg/mL (≈ 2.06 µM)	0.05 µg/mL (≈ 0.132 µM)	0.05 µg/mL (≈ 0.132 µM)	0.025 µg/mL (≈ 0.0659 µM)	0.1 µg/mL (≈ 0.264 µM)	0.017 mg mouse-1	0.012 µg/mL (≈ 0.0316 µM)	72%	0%	0.05 µg/mL (≈ 0.132 µM)	> 100 µM	0%	> 100 µM	580 µg/mL (≈ 1530 µM)	90%	0.067 mg mouse-1	90%	–	–
NCC1CN(c2cc3c(cc2F)c(=O)c(C(=O)O)cn3C2CC2)CCO1 (centres undefined)	1.56 µg/mL (≈ 4.32 µM)	0.2 µg/mL (≈ 0.553 µM)	0.39 µg/mL (≈ 1.08 µM)	0.2 µg/mL (≈ 0.553 µM)	0.2 µg/mL (≈ 0.553 µM)	0.139 mg mouse-1	0.05 µg/mL (≈ 0.138 µM)	81%	0%	0.1 µg/mL (≈ 0.277 µM)	> 100 µM	0%	> 100 µM	390 µg/mL (≈ 1080 µM)	93%	0.835 mg mouse-1	90%	–	–
CN(Cc1ccccc1)CC1CN(c2c(F)cc3c(=O)c(C(=O)O)cn(C4CC4)c3c2F)CCO1 (centres undefined)	25 µg/mL (≈ 51.7 µM)	1.56 µg/mL (≈ 3.23 µM)	0.78 µg/mL (≈ 1.61 µM)	0.39 µg/mL (≈ 0.807 µM)	1.56 µg/mL (≈ 3.23 µM)	–	–	–	–	–	–	–	–	–	–	–	–	–	–
O=C(O)c1cn(C2CC2)c2cc(N3CCOCC3)c(F)cc2c1=O	1.56 µg/mL (≈ 4.69 µM)	0.78 µg/mL (≈ 2.35 µM)	3.13 µg/mL (≈ 9.42 µM)	0.05 µg/mL (≈ 0.15 µM)	0.2 µg/mL (≈ 0.602 µM)	–	–	91%	0%	–	–	0%	> 100 µM	–	100%	–	99%	0.1 µg/mL (≈ 0.301 µM)	> 100 µM
CCn1cc(C(=O)O)c(=O)c2cc(F)c(N3CCOC(CN)C3)c(F)c21 (centres undefined)	3.13 µg/mL (≈ 8.52 µM)	0.39 µg/mL (≈ 1.06 µM)	0.39 µg/mL (≈ 1.06 µM)	0.2 µg/mL (≈ 0.544 µM)	1.56 µg/mL (≈ 4.25 µM)	0.232 mg mouse-1	0.1 µg/mL (≈ 0.272 µM)	79%	0%	0.39 µg/mL (≈ 1.06 µM)	> 100 µM	0%	> 100 µM	2900 µg/mL (≈ 7890 µM)	94%	0.521 mg mouse-1	89%	–	–
CC1COc2c(N3CCN(C)CC3)c(F)cc3c(=O)c(C(=O)O)cn1c23 (centres undefined) [OFLOXACIN]	0.78 µg/mL (≈ 2.16 µM)	0.78 µg/mL (≈ 2.16 µM)	0.78 µg/mL (≈ 2.16 µM)	0.2 µg/mL (≈ 0.553 µM)	0.1 µg/mL (≈ 0.277 µM)	0.009 mg mouse-1	0.2 µg/mL (≈ 0.553 µM)	39%	0%	0.05 µg/mL (≈ 0.138 µM)	11 µM	0%	> 100 µM	–	94%	0.27 mg mouse-1	87%	–	–
CN(C)CC1CN(c2c(F)cc3c(=O)c(C(=O)O)cn(C4CC4)c3c2F)CCO1 (centres undefined)	3.13 µg/mL (≈ 7.68 µM)	0.39 µg/mL (≈ 0.957 µM)	0.05 µg/mL (≈ 0.123 µM)	0.025 µg/mL (≈ 0.0614 µM)	0.2 µg/mL (≈ 0.491 µM)	0.009 mg mouse-1	0.012 µg/mL (≈ 0.0295 µM)	83%	0%	0.05 µg/mL (≈ 0.123 µM)	> 100 µM	0%	> 100 µM	> 1000 µg/mL	91%	0.035 mg mouse-1	89%	–	–
CCN(CC)CC1CN(c2c(F)cc3c(=O)c(C(=O)O)cn(C4CC4)c3c2F)CCO1 (centres undefined)	6.25 µg/mL (≈ 14.4 µM)	0.39 µg/mL (≈ 0.896 µM)	0.1 µg/mL (≈ 0.23 µM)	0.1 µg/mL (≈ 0.23 µM)	0.39 µg/mL (≈ 0.896 µM)	–	–	–	–	–	–	–	–	–	–	–	–	–	–
NCC1CN(c2c(F)cc3c(=O)c(C(=O)O)cn(C4CC4)c3c2F)CCCO1 (centres undefined)	6.25 µg/mL (≈ 15.9 µM)	1.56 µg/mL (≈ 3.97 µM)	1.56 µg/mL (≈ 3.97 µM)	0.78 µg/mL (≈ 1.98 µM)	0.39 µg/mL (≈ 0.991 µM)	–	–	–	–	–	–	–	–	–	–	–	–	–	–
CNCC1CN(c2c(F)cc3c(=O)c(C(=O)O)cn(C4CC4)c3c2F)CCO1 (centres undefined)	3.13 µg/mL (≈ 7.96 µM)	0.1 µg/mL (≈ 0.254 µM)	0.1 µg/mL (≈ 0.254 µM)	0.025 µg/mL (≈ 0.0636 µM)	0.1 µg/mL (≈ 0.254 µM)	0.024 mg mouse-1	0.012 µg/mL (≈ 0.0305 µM)	78%	0%	0.05 µg/mL (≈ 0.127 µM)	> 100 µM	0%	> 100 µM	630 µg/mL (≈ 1600 µM)	94%	0.044 mg mouse-1	90%	–	–
